# Experimental data as given in patent publication US20260262643A1, “HERBICIDAL BENZOXAZINES” (FMC CORPORATION, priority 2022, published 2026).
# Where two headings read alike, the source gives them in different places.
# Legend:
# [1] = test system: blackgrass; experiment: Test A preemergence; type: in vivo, Alopecurus myosuroides; settings: Alopecurus myosuroides, pre-emergence, 240 h, read-out: Plant response rating, Blackgrass; for pest or weed control at 125 g/ha: 125 g ai/ha; for pest or weed control at 500 g/ha: 500 g ai/ha
# Outline: (§1)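 Visual injury ratings on a 0–100 scale (100 = complete control) versus untreated controls, taken 10 days after treatment in greenhouse. Preemergence: directed soil spray onto seeded loam/sand. Postemergence: foliar application at one- to two-leaf stage, plants 2–10 cm. Formulation: non-phytotoxic solvent plus surfactant.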
# [2] = test system: kochia; experiment: Test A preemergence; type: in vivo, Bassia scoparia; settings: Bassia scoparia, pre-emergence, 240 h, read-out: Plant response rating, Kochia; for pest or weed control at 125 g/ha: 125 g ai/ha; for pest or weed control at 500 g/ha: 500 g ai/ha
# Outline: as §1
# [3] = test system: oat, wild; experiment: Test A preemergence; type: in vivo, Avena fatua; settings: Avena fatua, pre-emergence, 240 h, read-out: Plant response rating, Oat, Wild; for pest or weed control at 125 g/ha: 125 g ai/ha; for pest or weed control at 500 g/ha: 500 g ai/ha
# Outline: as §1
# [4] = test system: pigweed, palmer; experiment: Test A preemergence; type: in vivo, Amaranthus palmeri; settings: Amaranthus palmeri, pre-emergence, 240 h, read-out: Plant response rating, Pigweed, Palmer; for pest or weed control at 125 g/ha: 125 g ai/ha; for pest or weed control at 500 g/ha: 500 g ai/ha
# Outline: as §1
# [5] = test system: soybean; experiment: Test A preemergence; type: in vivo, Glycine max; settings: Glycine max, pre-emergence, 240 h, read-out: Plant response rating, Soybean; for plant injury at 125 g/ha: 125 g ai/ha; for plant injury at 500 g/ha: 500 g ai/ha
# Outline: as §1
# [6] = test system: kochia; experiment: Test A postemergence; type: in vivo, Bassia scoparia; settings: Bassia scoparia, post-emergence, 240 h, postemergence, 10 days, 0 to 100 scale (0 no effect, 100 complete control); for pest or weed control at 125 g/ha: 125 g ai/ha, read-out: Kochia plant response rating; for pest or weed control at 500 g/ha: 500 g ai/ha, visual injury, read-out: Plant response rating, Kochia
# Outline: as §1
# [7] = test system: oat, wild; experiment: Test A postemergence; type: in vivo, Avena fatua; settings: Avena fatua, post-emergence, 240 h, postemergence, 10 days, 0 to 100 scale (0 no effect, 100 complete control); for pest or weed control at 125 g/ha: 125 g ai/ha, read-out: Oat, Wild plant response rating; for pest or weed control at 500 g/ha: 500 g ai/ha, visual injury, read-out: Plant response rating, Oat, Wild
# Outline: as §1
# [8] = test system: ragweed; experiment: Test A postemergence; type: in vivo, Ambrosia artemisiifolia; settings: Ambrosia artemisiifolia, post-emergence, 240 h, postemergence, 10 days, 0 to 100 scale (0 no effect, 100 complete control); for pest or weed control at 125 g/ha: 125 g ai/ha, read-out: Ragweed plant response rating; for pest or weed control at 500 g/ha: 500 g ai/ha, visual injury, read-out: Plant response rating, Ragweed
# Outline: as §1
# [9] = test system: ryegrass, Italian; experiment: Test A postemergence; type: in vivo, Lolium multiflorum; settings: Lolium multiflorum, post-emergence, 240 h, postemergence, 10 days, 0 to 100 scale (0 no effect, 100 complete control); for pest or weed control at 125 g/ha: 125 g ai/ha, read-out: Ryegrass, Italian plant response rating; for pest or weed control at 500 g/ha: 500 g ai/ha, visual injury, read-out: Plant response rating, Ryegrass, Italian
# Outline: as §1
# [10] = test system: soybean; experiment: Test A postemergence; type: in vivo, Glycine max; settings: Glycine max, post-emergence, 240 h, postemergence, 10 days, 0 to 100 scale (0 no effect, 100 complete control); for plant injury at 125 g/ha: 125 g ai/ha, read-out: Soybean plant response rating; for plant injury at 500 g/ha: 500 g ai/ha, visual injury, read-out: Plant response rating, Soybean
# Outline: as §1
# [11] = test system: wheat; experiment: Test A postemergence; type: in vivo, Triticum aestivum; settings: Triticum aestivum, post-emergence, 240 h, postemergence, 10 days, 0 to 100 scale (0 no effect, 100 complete control); for plant injury at 125 g/ha: 125 g ai/ha, read-out: Wheat plant response rating; for plant injury at 500 g/ha: 500 g ai/ha, visual injury, read-out: Plant response rating, Wheat
# Outline: as §1
# [12] = test system: galium; experiment: Test A postemergence; type: in vivo, Galium aparine; settings: Galium, post-emergence, 240 h, postemergence, 10 days, 0 to 100 scale (0 no effect, 100 complete control); for pest or weed control at 125 g/ha: 125 g ai/ha, read-out: Galium plant response rating; for pest or weed control at 500 g/ha: 500 g ai/ha, visual injury, read-out: Plant response rating, Galium
# Outline: as §1
# [13] = test system: ducksalad; experiment: Test B flooded paddy test; type: in vivo, Heteranthera limosa; settings: Heteranthera limosa, 312 h, 250 g ai/ha, Flood, 13 days, 0 to 100 scale (0 no effect, 100 complete control); read-out: Plant response rating, Ducksalad
# Outline: (§2)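 Species grown to 2-leaf stage; pots flooded 3 cm above soil and compound applied directly to paddy water, depth maintained throughout. After 13 days in greenhouse, plants visually rated against controls on 0–100 scale (0 no effect, 100 complete control); dash means no result.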
# [14] = test system: rice; experiment: Test B flooded paddy test; type: in vivo, Oryza sativa; settings: Oryza sativa, 312 h; 250 g ai/ha, Flood, 13 days, 0 to 100 scale (0 no effect, 100 complete control); read-out: Plant response rating, Rice
# Outline: as §2
# [15] = test system: sedge, umbrella; experiment: Test B flooded paddy test; type: in vivo, Cyperus difformis; settings: Cyperus difformis, 312 h; 250 g ai/ha, Flood, 13 days, 0 to 100 scale (0 no effect, 100 complete control); read-out: Plant response rating, Sedge, Umbrella
# Outline: as §2
# [16] = visual injury after 10 days, 0 to 100 scale, 0 is no effect, 100 is complete control
# [17] = 0 to 100 scale (0 no effect, 100 complete control), 10 days
Compound,"pest or weed control at 500 g/ha [1, 16] [%]","pest or weed control at 500 g/ha [2, 16] [%]","pest or weed control at 500 g/ha [3, 16] [%]",pest or weed control at 125 g/ha [6] [%],pest or weed control at 500 g/ha [6] [%],pest or weed control at 125 g/ha [7] [%],pest or weed control at 500 g/ha [7] [%],pest or weed control at 125 g/ha [8] [%],pest or weed control at 500 g/ha [8] [%],pest or weed control at 125 g/ha [9] [%],pest or weed control at 500 g/ha [9] [%],plant injury at 125 g/ha [10] [%],plant injury at 500 g/ha [10] [%],plant injury at 125 g/ha [11] [%],plant injury at 500 g/ha [11] [%],pest or weed control at 125 g/ha [12] [%],pest or weed control at 500 g/ha [12] [%],pest or weed control at 250 g/ha [13] [%],plant injury at 250 g/ha [14] [%],pest or weed control at 250 g/ha [15] [%],other results
"C[C@H]1CN(C(=S)c2cccc(-n3cncn3)c2)c2cccc(Cl)c2O1 [Compound 139, [(2S)-8-Chloro-2,3-dihydro-2-methyl-4H-1,4-benzoxazin-4-yl][3-(1H-1,2,4-triazol-1-yl)phenyl]methanethione]",90,0,90,50,80,0,60,0,30,60,100,90,100,20,50,80,90,75,0,75,"pest or weed control at 125 g/ha ([1]; 0 to 100 scale): 70%; pest or weed control at 125 g/ha ([2]; 0 to 100 scale): 0%; pest or weed control at 125 g/ha ([3]; 0 to 100 scale): 20%; pest or weed control at 125 g/ha ([4]; 0 to 100 scale): 40%; pest or weed control at 500 g/ha [4, 16]: 100%; plant injury at 125 g/ha ([5]; 0 to 100 scale): 0%; plant injury at 500 g/ha [5, 16]: 40%"
"Cc1cccc2c1O[C@@H](C)CN2C(=O)c1cccc(-n2cn[nH]c2=O)c1 [Compound 122, 4-[3-[[(2S)-2,3-Dihydro-2,8-dimethyl-4H-1,4-benzoxazin-4-yl]carbonyl]phenyl]-2,4-dihydro-3H-1,2,4-triazol-3-one]",50,10,20,30,50,0,20,0,0,0,30,50,90,10,10,50,50,0,0,0,"pest or weed control at 125 g/ha [1, 16]: 10%; pest or weed control at 125 g/ha [2, 16]: 0%; pest or weed control at 125 g/ha [3, 16]: 0%; pest or weed control at 125 g/ha [4, 16]: 0%; pest or weed control at 500 g/ha [4, 16]: 30%; plant injury at 125 g/ha [5, 16]: 0%; plant injury at 500 g/ha [5, 16]: 0%"
"COCc1ncn(-c2cccc(C(=O)N3C[C@H](C)Oc4c(C)cccc43)c2)n1 [Compound 101, [(2S)-2,3-Dihydro-2,8-dimethyl-4H-1,4-benzoxazin-4-yl][3-[3-(methoxymethyl)-1H-1,2,4-triazol-1-yl]phenyl]methanone]",,,,70,80,40,90,50,50,60,60,70,100,20,70,50,90,55,0,85,"pest or weed control at 125 g/ha [1, 16]: 50%; pest or weed control at 500 g/ha [1, 17]: 90%; pest or weed control at 125 g/ha [2, 16]: 20%; pest or weed control at 500 g/ha [2, 17]: 90%; pest or weed control at 125 g/ha [3, 16]: 40%; pest or weed control at 500 g/ha [3, 17]: 90%; pest or weed control at 125 g/ha [4, 16]: 90%; pest or weed control at 500 g/ha [4, 17]: 100%; plant injury at 125 g/ha [5, 16]: 20%; plant injury at 500 g/ha [5, 17]: 40%"
